Test results reported in patent US20150297623A1, “METHODS FOR TREATMENT OF PRIMARY CANCER AND CANCER METASTASIS” (THE BOARD OF REGENTS OF THE UNIVERSITY OF TEXAS SYSTEM, priority 2012, published 2015).

What was measured:
MDA-MB-231 cells [1] = assay: WST-1 cell proliferation assay; assay type: cell-based, human; conditions: for effect on cell proliferation: concentrations as used in migration assay / various concentrations
Experimental: Cell viability was assessed using WST-1 (Water Soluble Tetrazolium salts) assay (Roche). A single cell suspension was plated in 96-well plates at 2.0×10^4 cells/well and allowed to attach to the plates at 37° C. for 2 hr. […] After the treatment, cell viability was measured by adding 10 μl of Cell Proliferation Reagent WST-1 to each well and incubated for 1 hr at 37° C. in a 5% CO2 incubator. The cell proliferation was measured at an […] wavelength of 450 nm with a Synergy HT Multi-Mode Microplate Reader (Biotek).

MDA-MB-231 cells [2] = assay: Transwell cell migration assay, MDA-MB-231; assay type: cell-based, human; conditions: for effect on migration of MDA-MB-231 cells: 200 μM
Experimental: (§1) MLO-Y4 cells were seeded onto 150 mm dishes (Corning) and incubated for 24 hr to allow attachment, after which media was removed and changed with α-modified essential medium (α-MEM) without phenol red (Gibco) supplemented with 2.5% FBS and 2.5% BCS (Hyclone). MLO-Y4 cells were incubated in the absence or present of 20 μM AD in a 5% CO2 incubator at 37° C. for 48 hr and the CM was collected.
(§2) Migration assays were performed in transwell membrane filter inserts in 24-well tissue culture plates (BD Biosciences San Jose, Calif., USA). The transwell membrane filter inserts contained 6.5-mm diameter, 8-μm pore size, […] thick polycarbonate membranes. The breast cancer cell lines were harvested and resuspended in CM from MLO-Y4 cells with or without other compounds. Five-hundred microliter breast cancer cell suspensions were added to the upper side of the inserts at a density of 10×10^4 cells/insert and 750 μl CM with or without other compounds was added to the lower wells. Cells were incubated at 37° C. for 18-20 hr. […] The number of migrated cells in 5 fields of view per insert was counted under a light microscope at magnification 10×.

[3] = tested on: Py8119 mouse mammary carcinoma cells; assay: Transwell cell migration assay, Py8119; assay type: cell-based
Experimental: as §1, §2

MDA-MB-231 cells [4] = assay: Orthotopic MDA-MB-231 xenograft in mammary fat pads of nude mice; assay type: in vivo, mouse; conditions: for tumor growth rate in comparison to the control group: 400 μmol per mouse IP three times a week
Experimental: To test if ATP has a similar, inhibitory effect on tumor growth in vivo, the inventors used an orthotopic mouse model. MDA-MB-231 cells were orthotopically implanted into the mammary fat pads of athymic female nude mice. After the mice were randomly assigned into 3 different treatment groups, the mice were treated with or without ATPγS or adenosine. The ATPγS and adenosine were administered through IP injections at 400 μmol per mouse three times a week. The control mice were injected IP with saline. Dosages were determined by a previous study showing no toxicity from IP injections of up to 50 mM of adenine nucleotides into mice for 10 days. Tumor sizes were measured once every three to four days throughout the treatment period. At the end of the study, the tumors were excised and weighed. […] The reduced mean tumor volume of the treatment group was statistically significant after 17 days of ATPγS treatment. […] Additionally, the adenosine-treated group had 50% increased tumor sizes compared to the control group tumors (FIG. 7B).
MDA-MB-231 cells were injected subcutaneously in the mammary fat pad of 4-week-old female nu/nu athymic nude mice. Each mouse received bilateral subcutaneous inoculation in both the left and right inguinal mammary fat pad areas with 100 μl of cell suspension containing ˜1×10^7 cells/ml in serum-free media. Animals were randomly assigned to 3 different groups, and solid tumors were allowed to form up to about 5 mm^3 volume before treatments began. ATPγS, at 400 μmol/500 μl saline, adenosine, at 400 μmol/500 μl saline, or 500 μl of saline, were administered intraperitoneally (IP) three times a week for 3 weeks. The growth of xenograft tumors was monitored twice a week and tumor size was measured with a caliper in two dimensions. Tumor volumes were calculated with the equation V=(L×W^2)×0.5 (mm^3), where L is length and W is width of a tumor.

MDA-MB-231 cells [5] = assay: Soft agar colony formation assay (anchorage-independent growth); assay type: cell-based, human; conditions: about 2 weeks (control 82±4.5)
Experimental: For anchorage-independent cell growth, MDA-MB-231 cells were plated in 0.4% agarose with complete medium supplemented with either 100 μM ATPγS or 200 μM adenosine on top of a 0.8% agarose base supplemented with complete medium. Cells were maintained for about 2 weeks before staining with p-iodonitrotetrazolium violet (Sigma-Aldrich, St. Louis, Mo.). Images were captured by using a scanner and the numbers of colonies were counted.

[6] = tested on: Py8119 mammary carcinoma cells; assay: Intratibial injection of Py8119/Luc-GFP cells, bioluminescence imaging; assay type: in vivo, mouse
Experimental: To assess how systemic treatment with ATPγS may affect the growth of breast cancer cells in the bone microenvironment of a syngeneic host, the inventors performed intratibial injections in wild-type C57b1/6 female mice using the mouse mammary carcinoma cell line Py8119. The mammary tumor cells were injected into the right tibias of the female mice, and the tumor growth was monitored with whole animal imaging once a week for 4 weeks. The mice were treated with IP injection of saline supplemented with or without 400 μmol ATPγS three times a week. […] Quantification data (lower panels) further confirmed the significant decrease of tumor growth in bone with the treatment of ATPγS. Mice were anesthetized by isoflurane and were also given buprenorpine-HCl (0.3 mg/ml) as an analgesic. Py8119 cells expressing Luc-GFP (1×10^5 in 20 μl of PBS) were inoculated into the bone marrow area of right tibias through the pre-made hole by a Hamilton syringe fitted with a 30-gauge needle. […] Intratibial tumor growth was monitored with bioluminescence imaging with a Xenogen IVIS-Spectrum imaging system (Xenogen, Alameda, Calif., USA) every week starting from 3 days after tumor cell inoculation. […] Analysis was performed using LivingImage software (Xenogen) by measurement of photon flux (measured in photons/sec/cm^2/steradian) with a region of interest (ROI) drawn around the bioluminescence signal to be measured. […]

## CCN(CC)c1ncnc2c1ncn2[C@@H]1O[C@H](COP(=O)(O)OP(=O)(O)C(Br)(Br)P(=O)(O)O)[C@@H](O)[C@H]1O [ARL67156]
MDA-MB-231 cells [1]
  effect on cell proliferation: not caused by changes in cell proliferation
MDA-MB-231 cells [2]; 200 μM ARL67156, 200 μM ATP
  effect on the stimulatory effect of higher dosage of ATP on migration: attenuated

## apyrase
MDA-MB-231 cells [2]; apyrase 5 units/ml in CM-AD
  increase of MDA-MB-231 cell migration: 7.7 fold
MDA-MB-231 cells [2]; apyrase 5 units/ml in untreated CM
  increase of MDA-MB-231 cell migration: 2.5 fold

## Nc1ncnc2c1ncn2[C@@H]1O[C@H](COP(=O)(O)OP(=O)(O)OP(=O)(O)O)[C@@H](O)[C@H]1O [ATP, adenosine-5′-triphosphate]
MDA-MB-231 cells [1]
  effect on cell proliferation: not caused by alterations of cell proliferation
MDA-MB-231 cells [2]; 200 μM ATP added to CM from non-AD-treated MLO-Y4 cells (control 127±2)
  number of migrated MDA-MB-231 cells: 188±33.5
MDA-MB-231 cells [2]; 200 μM ATP added to CM-AD (control 88±10.7)
  number of migrated MDA-MB-231 cells: 153±21.1
MDA-MB-231 cells [2]; 20 hr
  effect on migration of MDA-MB-231 cells: increased migration
MDA-MB-231 cells [2]; compound 50 μM
  number of migrating MDA-MB-231 cells: 100±17.7 cells
MDA-MB-231 cells [2]; compound 200 μM
  number of migrating MDA-MB-231 cells: 257±26 cells
MDA-MB-231 cells [2]; compound 400 μM
  number of migrating MDA-MB-231 cells: 240±0.9 cells
[3]; 400 μM ATP in CM (control 254±25.9)
  number of migrated Py8119 cells: 159±7.8 cells
[3]; 400 μM ATP in CM-AD (control 127±0.3)
  number of migrated Py8119 cells: 88±10.3 cells

## 2′(3′)-O-(4-Benzoylbenzoyl)adenosine-5′-triphosphate tri(triethylammonium) salt [BzATP]
MDA-MB-231 cells [1]; 400 μM
  effect on cell proliferation (WST-1): significant reduction
MDA-MB-231 cells [1]; concentrations 1-200 μM
  effect on cell proliferation (WST-1): minimal effects
MDA-MB-231 cells [2]; compound 10 μM
  number of migrating MDA-MB-231 cells: 99±7.8 cells
MDA-MB-231 cells [2]; compound 100 μM
  number of migrating MDA-MB-231 cells: 64±4.4 cells
MDA-MB-231 cells [2]; compound 200 μM
  number of migrating MDA-MB-231 cells: 39±2.6 cells

## Nc1ncnc2c1ncn2[C@@H]1O[C@H](CO)[C@@H](O)[C@H]1O [adenosine]
MDA-MB-231 cells [4]; 400 μmol adenosine IP three times a week, post mortem
  increase of tumor sizes compared to control group: 50%
MDA-MB-231 cells [4]
  tumor growth rate in comparison to the control group: increase
MDA-MB-231 cells [1]
  effect on cell proliferation: minimal effects
MDA-MB-231 cells [2]; 200 μM adenosine in CM from MLO-Y4 cells
  effect on MDA-MB-231 cell migration: increased
MDA-MB-231 cells [2]; 20 hr
  effect on migration of MDA-MB-231 cells: increases
MDA-MB-231 cells [5]; 200 μM adenosine
  colony formation of MDA-MB-231 cells in soft agar: 132±13.7 colonies

## CCOc1nc2c(N)ncnc2n1CC [ANR94, 8-Ethoxy-9-ethyl-9H-purin-6-amine]
MDA-MB-231 cells [2]; 100 μM ANR94, 200 μM ATP, 20 hr
  effect on ATP-increased migration of MDA-MB-231 cells: attenuated
MDA-MB-231 cells [2]; 100 μM ANR94, 200 μM adenosine, 20 hr
  effect on adenosine-increased migration of MDA-MB-231 cells: attenuated

## CCCn1c(=O)c2[nH]c(-c3ccc(OCC(=O)Nc4ccc(C#N)cc4)cc3)nc2n(CCC)c1=O [MRS1754, N-(4-Cyanophenyl)-2-[4-(2,3,6,7-tetrahydro-2,6-dioxo-1,3-dipropyl-1H-purin-8-yl)phenoxy]-acetamide]
MDA-MB-231 cells [2]; 500 nM MRS1754
  effect on the inhibitory effect of CM-AD on cell migration: further augmented the inhibitory effect
MDA-MB-231 cells [2]; 500 nM MRS1754, 200 μM ATP, in CM / CM-AD
  effect on the stimulatory effect of ATP on migration: attenuated
MDA-MB-231 cells [2]; 500 nM MRS1754, 200 μM adenosine, in CM
  effect on adenosine-induced increase of MDA-MB-231 cell migration: completely attenuated
MDA-MB-231 cells [2]; 500 nM MRS1754, apyrase 5 units/ml, in CM
  effect on the increase of migration caused by apyrase treatment: significantly attenuated
[3]
  effect on adenosine-enhanced migration of Py8119 cells: inhibited

## Nc1ncnc2c1ncn2[C@@H]1O[C@H](COP(=O)([O-])OP(=O)([O-])OP([O-])([O-])=S)[C@@H](O)[C@H]1O.[Li+].[Li+].[Li+].[Li+] [ATPγS, adenosine 5′-[γ-thio]triphosphate tetralithium salt]
MDA-MB-231 cells [4]; 400 μmol ATPγS IP three times a week, post mortem
  decrease of size of excised tumors vs control group: over 4 fold
MDA-MB-231 cells [4]
  tumor growth rate in comparison to the control group: significantly reduced
[6]; 400 μmol ATPγS IP three times a week
  tumor growth in the tibias (bioluminescence): significantly inhibited
[6]; 400 μmol ATPγS IP, after 4 weeks of treatment
  tumor burden (bioluminescence signals, dorsal and ventral): dramatic reduction
MDA-MB-231 cells [2]; 100 μM ATPγS in control CM (control 112±2.4)
  number of migrated MDA-MB-231 cells: 63±9.6 cells
MDA-MB-231 cells [2]; compound 50 μM
  number of migrating MDA-MB-231 cells: 46±9.3 cells
MDA-MB-231 cells [2]; compound 100 μM
  number of migrating MDA-MB-231 cells: 33±3.3 cells
MDA-MB-231 cells [2]; compound 200 μM
  number of migrating MDA-MB-231 cells: 11±1.7 cells
MDA-MB-231 cells [2]; compound 400 μM
  number of migrating MDA-MB-231 cells: 9±1.5 cells
MDA-MB-231 cells [5]; 100 μM ATPγS
  colony formation of MDA-MB-231 cells in soft agar: 47±6.2 colonies
[3]; 100 μM ATPγS in CM / CM-AD
  effect on migration of Py8119 cells: decreased

## Nc1ncnc2c1ncn2[C@@H](C=O)O[C@@H](C=O)COP(=O)(O)OP(=O)(O)OP(=O)(O)O [oATP]
MDA-MB-231 cells [2]; 300 μM oATP
  effect on the inhibitory effect of CM-AD on MDA-MB-231 cell migration: significantly attenuated
